Test system: HMPV clinical isolate A2 strain TN 94-49
Assay: HMPV antiviral assay, Method 2 (LLC-MK2 cells with CP-100-356, ATP-Lite)
Assay type: cell-based
Conditions: human metapneumovirus; hMPV A2 TN/94-49, LLC-MK2 cells with CP-100-356, Method 2
How it was run: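 LLC-MK2 rhesus kidney cells (5,000/well) infected in suspension with HMPV A2 TN 94-49 at MOI 0.16, in serum-free medium with final 2 μg/mL TPCK-trypsin and 2 μM CP-100-356. Compounds tested in duplicate from 200 nM, 2.5-fold, 10 points; 7 days at 37 °C. Cell health by ATP-Lite luminescence; EC50 by four-parameter fit.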

Compound | EC50 [nM]
COc1cc(C(=O)NC[C@](O)(c2cc3c(c(-c4cc(F)c(F)cc4F)n2)OC[C@]3(C)C(N)=O)C2CC2)ccc1OC[C@@H](C)O [Example 125] | > 200
COc1cc(C(=O)NC[C@](O)(c2cc3c(c(-c4ccnc(C(F)F)c4Cl)n2)OC[C@]3(C)C(N)=O)C(F)(F)F)cc2cn(C3(F)CC3)nc12 [Example 548] | < 200
COc1cc(C(=O)NC[C@](O)(c2cc3c(c(-c4ccc5c(c4Cl)OC(F)(F)O5)n2)OC[C@]3(C)C(N)=O)C2CC2)cc2cn(C(F)F)nc12 [Example 457] | < 200

Test system: HRSV
Assay: not given
Conditions: prophylactic use, high risk infants; cited from earlier work

Compound | effective in reducing hospitalizations [%]
Palivizumab: "a monoclonal antibody that is approved for prophylactic use, but its use is limited due to its high price" | 60

Test system: HMPV clinical isolate A2 strain TN 94-49
Assay: HMPV antiviral assay, Method 1 (LLC-MK2 cells, ATP-Lite)
Assay type: cell-based
Conditions: human metapneumovirus, hMPV A2 TN/94-49, LLC-MK2 cells
How it was run: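 LLC-MK2 cells (5,000/well) infected in suspension with HMPV A2 TN 94-49 at MOI 0.005 in serum-free OptiMEM with 2 μg/mL final TPCK-trypsin, compounds in duplicate from 2 μM top, 2.5-fold, 10 points. After 7 days at 37° C, cell health by ATP-Lite luminescence normalised to virus and cell controls; EC50 from four-parameter fit.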

Compound | EC50 [nM]
COc1cc(C(=O)NC[C@](O)(c2cc3c(c(-c4cc(Cl)c(F)cc4F)n2)OC[C@]3(C)C(N)=O)[C@H]2CC2(F)F)cc2cn(C3CC3)nc12 [Example 150] | < 500
COc1cc(C(=O)NC[C@@](O)(c2ccc(F)cc2)c2cc3c(c(-c4ccc5c(c4Cl)OC(F)(F)O5)n2)OC[C@]3(C)C(N)=O)cc2cn(C3CC3)nc12 [Example 25] | < 500
Cc1nc2ccc(C(=O)NC[C@](O)(c3cc4c(c(-c5cc(Cl)c(F)cc5F)n3)OC[C@]4(C)C(N)=O)C3CC3)cc2s1 [Example 74] | < 500
C[C@]1(C(N)=O)COc2c1cc([C@@](O)(CNC(=O)c1cc(OC3CC3)c3nn(C4CC4)cc3c1)C1CC(F)(F)C1)nc2-c1cc(F)c(F)cc1F [Example 32] | < 500
[2H]C([2H])([2H])c1nc2ccc(C(=O)NC[C@](O)(c3cc4c(c(-c5cc(Cl)c(F)cc5F)n3)OC[C@]4(C)C(N)=O)C3CC3)cc2o1 [Example 91] | < 500
[2H]C([2H])([2H])c1nc2ccc(C(=O)NC[C@](O)(c3cc4c(c(-c5cc(F)c(F)cc5F)n3)OC[C@]4(C)C(N)=O)C3CC3)cc2o1 [Example 92] | < 500
C=C(CNC(=O)c1cc(OC)c2nn(C3CC3)cc2c1)c1cc2c(c(-c3cc(Cl)c(F)cc3F)n1)OC[C@]2(C)C(N)=O [Example 214] | > 500
Cc1nc2c(OC3CC3)cc(C(=O)NC[C@](O)(c3cc4c(c(-c5cc(Cl)c(F)cc5F)n3)OC[C@]4(C)C(N)=O)C3CC3)cc2s1 [Example 76] | < 500
COc1cc(C(=O)NC[C@](O)(c2cc3c(c(-c4ccc5c(c4C)OC(F)(F)O5)n2)OC[C@]3(C)C(N)=O)C2CC2)cc2cn(C3CC3)nc12 [Example 392] | < 500
[2H]C([2H])([2H])C1=NC2C(OC)=CC(C(=O)NC[C@](O)(c3cc4c(c(-c5ccc6c(c5Cl)OC(F)(F)O6)n3)OC[C@]4(C)C(N)=O)C3CC3)=CC2S1 (stereo partly drawn) [Example 127] | < 500
C[C@]1(C(N)=O)COc2c1cc([C@@](O)(CNC(=O)c1ccc3nc(N)sc3c1)C1CC1)nc2-c1cc(F)c(F)cc1F [Example 73] | > 500
COc1cc(C(=O)NC[C@](O)(c2cc3c(c(-c4ccc5c(c4Cl)OC(F)(F)O5)n2)OC[C@]3(C)C(N)=O)C2CC2)cc2cn(C3(F)CC3)nc12 [Example 128] | < 500
COc1cc(C(=O)NC[C@](O)(c2cc3c(c(-c4ccc(F)c(Cl)c4C)n2)OC[C@]3(C)C(N)=O)C2CC2)cc2cn(C3CC3)nc12 [Example 391] | < 500
COc1cc(C(=O)NC[C@](O)(c2cc3c(c(-c4cc(Cl)c(F)cc4F)n2)OC[C@]3(C)C(N)=O)C2(CO)CC2)cc2cn(C3CC3)nc12 [Example 245] | > 500
COc1cccc([C@](O)(CNC(=O)c2cc(OC)c3nn(C(F)F)cc3c2)c2cc3c(c(-c4cc(Cl)c(F)cc4F)n2)OC[C@]3(C)C(N)=O)c1 [Example 161] | < 500
COc1cc(C(=O)NC[C@](O)(c2cc3c(c(-c4cc(Cl)c(F)cc4F)n2)OC[C@]3(C)C(N)=O)[C@@H]2CC2(F)F)cc2cn(C3CC3)nc12 [Example 151] | < 500
COc1cc(C(=O)NC[C@](O)(c2cc3c(c(-c4ccc5c(c4Cl)OC(F)(F)O5)n2)OC[C@]3(C)C(N)=O)C2CC2)cc2cn(C(F)F)nc12 [Example 457] | < 500
Cc1nc2ccc(C(=O)NC[C@](O)(c3cc4c(c(-c5cc(Cl)c(F)cc5F)n3)OC[C@]4(C)C(N)=O)C3CC3)cc2o1 [Example 75] | < 500

Test system: genotype A, “Long” strain RSV
Assay: RSV-A assay (CPE, ATPlite readout in Hep-2 cells)
Assay type: cell-based, Human respiratory syncytial virus
Conditions: human respiratory syncytial virus, activity class
How it was run: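 Compound effect on RSV-induced CPE: Hep-2 monolayers, MOI 0.1, duplicate 2-fold titrations, 5-day culture in 10% FBS DMEM. Readout is ATP-based luminescence, normalised to virus-only and no-virus controls, giving EC50.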

Compound | EC50 [nM]
COc1cc(C(=O)NC[C@](O)(c2cc3c(c(-c4cc(Cl)c(F)cc4F)n2)OC[C@]3(C)C(N)=O)[C@H]2CC2(F)F)cc2cn(C3CC3)nc12 [Example 150] | < 200
COc1cc(C(=O)NC[C@@](O)(c2ccc(F)cc2)c2cc3c(c(-c4ccc5c(c4Cl)OC(F)(F)O5)n2)OC[C@]3(C)C(N)=O)cc2cn(C3CC3)nc12 [Example 25] | < 200
Cc1nc2ccc(C(=O)NC[C@](O)(c3cc4c(c(-c5cc(Cl)c(F)cc5F)n3)OC[C@]4(C)C(N)=O)C3CC3)cc2s1 [Example 74] | < 200
C[C@]1(C(N)=O)COc2c1cc([C@@](O)(CNC(=O)c1cc(OC3CC3)c3nn(C4CC4)cc3c1)C1CC(F)(F)C1)nc2-c1cc(F)c(F)cc1F [Example 32] | < 200
[2H]C([2H])([2H])c1nc2ccc(C(=O)NC[C@](O)(c3cc4c(c(-c5cc(Cl)c(F)cc5F)n3)OC[C@]4(C)C(N)=O)C3CC3)cc2o1 [Example 91] | < 200
[2H]C([2H])([2H])c1nc2ccc(C(=O)NC[C@](O)(c3cc4c(c(-c5cc(F)c(F)cc5F)n3)OC[C@]4(C)C(N)=O)C3CC3)cc2o1 [Example 92] | < 200
C=C(CNC(=O)c1cc(OC)c2nn(C3CC3)cc2c1)c1cc2c(c(-c3cc(Cl)c(F)cc3F)n1)OC[C@]2(C)C(N)=O [Example 214] | < 200
Cc1nc2c(OC3CC3)cc(C(=O)NC[C@](O)(c3cc4c(c(-c5cc(Cl)c(F)cc5F)n3)OC[C@]4(C)C(N)=O)C3CC3)cc2s1 [Example 76] | < 200
COc1cc(C(=O)NC[C@](O)(c2cc3c(c(-c4ccc5c(c4C)OC(F)(F)O5)n2)OC[C@]3(C)C(N)=O)C2CC2)cc2cn(C3CC3)nc12 [Example 392] | < 200
[2H]C([2H])([2H])C1=NC2C(OC)=CC(C(=O)NC[C@](O)(c3cc4c(c(-c5ccc6c(c5Cl)OC(F)(F)O6)n3)OC[C@]4(C)C(N)=O)C3CC3)=CC2S1 (stereo partly drawn) [Example 127] | < 200
C[C@]1(C(N)=O)COc2c1cc([C@@](O)(CNC(=O)c1ccc3nc(N)sc3c1)C1CC1)nc2-c1cc(F)c(F)cc1F [Example 73] | < 200
COc1cc(C(=O)NC[C@](O)(c2cc3c(c(-c4ccc5c(c4Cl)OC(F)(F)O5)n2)OC[C@]3(C)C(N)=O)C2CC2)cc2cn(C3(F)CC3)nc12 [Example 128] | < 200
COc1cc(C(=O)NC[C@](O)(c2cc3c(c(-c4ccc(F)c(Cl)c4C)n2)OC[C@]3(C)C(N)=O)C2CC2)cc2cn(C3CC3)nc12 [Example 391] | < 200
COc1cc(C(=O)NC[C@](O)(c2cc3c(c(-c4cc(Cl)c(F)cc4F)n2)OC[C@]3(C)C(N)=O)C2(CO)CC2)cc2cn(C3CC3)nc12 [Example 245] | < 200
COc1cccc([C@](O)(CNC(=O)c2cc(OC)c3nn(C(F)F)cc3c2)c2cc3c(c(-c4cc(Cl)c(F)cc4F)n2)OC[C@]3(C)C(N)=O)c1 [Example 161] | < 200
COc1cc(C(=O)NC[C@](O)(c2cc3c(c(-c4cc(F)c(F)cc4F)n2)OC[C@]3(C)C(N)=O)C2CC2)ccc1OC[C@@H](C)O [Example 125] | < 200
COc1cc(C(=O)NC[C@](O)(c2cc3c(c(-c4cc(Cl)c(F)cc4F)n2)OC[C@]3(C)C(N)=O)[C@@H]2CC2(F)F)cc2cn(C3CC3)nc12 [Example 151] | < 200
COc1cc(C(=O)NC[C@](O)(c2cc3c(c(-c4ccnc(C(F)F)c4Cl)n2)OC[C@]3(C)C(N)=O)C(F)(F)F)cc2cn(C3(F)CC3)nc12 [Example 548] | < 200
COc1cc(C(=O)NC[C@](O)(c2cc3c(c(-c4ccc5c(c4Cl)OC(F)(F)O5)n2)OC[C@]3(C)C(N)=O)C2CC2)cc2cn(C(F)F)nc12 [Example 457] | < 200
Cc1nc2ccc(C(=O)NC[C@](O)(c3cc4c(c(-c5cc(Cl)c(F)cc5F)n3)OC[C@]4(C)C(N)=O)C3CC3)cc2o1 [Example 75] | < 200
